The source made the active and inactive calls. The rule behind the calls is not given here. Starred links: 1 amine or outer side, 2 acyl side, 3 side chain; linkers in the order of their positions; H or OH if unused. Non-standard residues stand in square brackets, D forms with d. Residues, ends and D or L forms follow the SMILES beside them. *: point of attachment. X5 = Nc1ncnc2c1c(-c1ccc(Oc3ccccc3)cc1)nn2[C@@H]1CCCN(C(=O)/C=C/CN2CCN(CCOCCOCCC(=O)*)CC2)C1; X4 = COc1nc(OCc2cccc(-c3ccccc3)c2C)ccc1CNCCNC(=O)CCCc1cn(CC(=O)*)nn1; X1 = Cc1ccc(-n2nc3c(=O)n(CCCC(=O)*)nc(C)c3c2C)cc1; X2 = O=S(=O)(c1ccc(NC(=S)NCc2cccnc2)cc1)*; X3 = O=C(CCCCCCCN1CCN([*:1])CC1)[*:2]; Aoc = NCCCCCCCC(=O)O
Columns and labels:
MIA PaCa-2 [1] = assay: Antiproliferative activity against human MIA PaCa-2 cells incubated for 72 hrs by CKK8 assay; type: functional, cell-based; settings: MIA PaCa-2, 72 h
[2] = target: T1, Nicotinamide phosphoribosyltransferase (Homo sapiens, UniProt P43490); assay: Peptide-mediated small molecule lysosome-targeting chimeric activity based NAMPT degradation in human A2780 cells incubated for 48 hrs by Western blot analysis; type: cell-based
[3] = target: T1, Nicotinamide phosphoribosyltransferase; assay: Peptide-mediated small molecule lysosome-targeting chimeric activity based NAMPT degradation in human A2780 cells at 1 to 40 uM incubated for 48 hrs by Western blot analysis relative to control; type: cell-based; settings: dose 1-40 µM
Target sequence in this assay (P43490 whole entry, looked up): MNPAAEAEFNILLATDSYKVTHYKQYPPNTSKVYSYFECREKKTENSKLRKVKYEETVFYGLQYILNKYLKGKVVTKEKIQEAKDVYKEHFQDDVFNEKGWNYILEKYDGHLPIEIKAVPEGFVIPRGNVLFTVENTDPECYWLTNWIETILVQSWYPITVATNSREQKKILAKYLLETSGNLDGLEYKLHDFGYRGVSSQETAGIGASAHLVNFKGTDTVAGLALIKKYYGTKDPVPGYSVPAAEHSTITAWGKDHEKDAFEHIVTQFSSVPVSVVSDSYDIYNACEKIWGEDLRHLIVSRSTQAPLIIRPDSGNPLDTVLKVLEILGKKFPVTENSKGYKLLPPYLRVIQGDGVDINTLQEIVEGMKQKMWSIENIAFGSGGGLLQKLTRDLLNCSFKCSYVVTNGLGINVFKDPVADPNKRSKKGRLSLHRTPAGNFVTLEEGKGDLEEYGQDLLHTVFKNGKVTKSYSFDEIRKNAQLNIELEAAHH

[4] = target: T1, Nicotinamide phosphoribosyltransferase; assay: Peptide-mediated small molecule lysosome-targeting chimeric activity based NAMPT degradation in human MOLT-4 cells incubated for 48 hrs by Western blot analysis; type: cell-based
[5] = target: T1, Nicotinamide phosphoribosyltransferase; assay: Peptide-mediated small molecule lysosome-targeting chimeric activity based NAMPT degradation in human MOLT-4 cells at 1 to 40 uM incubated for 48 hrs by Western blot analysis relative to control; type: cell-based; settings: dose 1-40 µM
Target sequence in this assay (P43490 whole entry, looked up): as above

[6] = target: T2, Programmed cell death 1 ligand 1 (Homo sapiens, UniProt Q9NZQ7); assay: Peptide-mediated small molecule lysosome-targeting chimeric activity based PD-L1 degradation in human A549 cells at 0.1 to 5 uM incubated for 48 hrs by Western blot analysis relative to control; type: cell-based; settings: dose 0.1-5 µM
T2 sequence (Q9NZQ7 whole entry): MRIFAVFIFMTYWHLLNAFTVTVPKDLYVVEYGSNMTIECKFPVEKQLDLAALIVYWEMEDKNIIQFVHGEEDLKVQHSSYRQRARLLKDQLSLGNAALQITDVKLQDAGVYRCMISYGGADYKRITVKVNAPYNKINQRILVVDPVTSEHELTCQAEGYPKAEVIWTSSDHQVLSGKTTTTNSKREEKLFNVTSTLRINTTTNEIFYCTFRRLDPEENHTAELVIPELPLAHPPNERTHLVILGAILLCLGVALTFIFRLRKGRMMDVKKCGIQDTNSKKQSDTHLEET

[7] = target: T2, Programmed cell death 1 ligand 1; assay: Peptide-mediated small molecule lysosome-targeting chimeric activity based PD-L1 degradation in human A549 cells incubated for 48 hrs by Western blot analysis; type: cell-based
[8] = target: T2, Programmed cell death 1 ligand 1; assay: Peptide-mediated small molecule lysosome-targeting chimeric activity based PD-L1 degradation in Baf-A1-treated human A549 cells upto 5 uM incubated for 48 hrs by Western blot analysis; type: cell-based
[9] = target: Tyrosine-protein kinase BTK (Homo sapiens) (UniProt Q06187); assay: Peptide-mediated small molecule lysosome-targeting chimeric activity based BTK degradation in human K562 cells at 10 uM incubated for 48 hrs by Western blot analysis relative to control; type: cell-based
Tyrosine-protein kinase BTK (Homo sapiens), sequence (Q06187 whole entry): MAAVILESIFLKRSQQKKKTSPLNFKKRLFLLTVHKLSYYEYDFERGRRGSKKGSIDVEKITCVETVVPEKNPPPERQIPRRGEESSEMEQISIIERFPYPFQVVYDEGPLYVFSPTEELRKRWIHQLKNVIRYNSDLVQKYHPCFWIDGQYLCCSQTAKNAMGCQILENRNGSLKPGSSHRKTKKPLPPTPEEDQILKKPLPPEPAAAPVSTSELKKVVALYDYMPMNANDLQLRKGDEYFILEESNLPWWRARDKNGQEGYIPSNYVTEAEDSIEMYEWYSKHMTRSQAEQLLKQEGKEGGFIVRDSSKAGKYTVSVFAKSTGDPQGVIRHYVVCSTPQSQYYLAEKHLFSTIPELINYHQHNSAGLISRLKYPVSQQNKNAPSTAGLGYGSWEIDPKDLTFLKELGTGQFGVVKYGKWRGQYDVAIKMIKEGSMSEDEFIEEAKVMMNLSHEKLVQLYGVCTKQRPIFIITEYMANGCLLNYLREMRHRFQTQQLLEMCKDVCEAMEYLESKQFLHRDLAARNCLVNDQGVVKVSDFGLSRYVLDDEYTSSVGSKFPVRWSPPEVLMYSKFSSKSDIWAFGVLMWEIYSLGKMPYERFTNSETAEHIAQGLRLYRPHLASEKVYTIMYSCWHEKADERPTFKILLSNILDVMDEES

[10] = target: T3, Retinal rod rhodopsin-sensitive cGMP 3',5'-cyclic phosphodiesterase subunit delta (Homo sapiens, UniProt O43924); assay: Peptide-mediated small molecule lysosome-targeting chimeric activity based PDE-delta degradation in human MIA PaCa-2 cells at 0.1 uM incubated for 48 hrs by Western blot analysis; type: cell-based
T3 sequence (O43924 whole entry): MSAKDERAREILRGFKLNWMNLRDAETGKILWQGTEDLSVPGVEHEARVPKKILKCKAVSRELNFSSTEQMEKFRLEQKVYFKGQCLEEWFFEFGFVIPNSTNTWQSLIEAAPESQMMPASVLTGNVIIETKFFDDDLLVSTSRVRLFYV

[11] = target: T3, Retinal rod rhodopsin-sensitive cGMP 3',5'-cyclic phosphodiesterase subunit delta; assay: Peptide-mediated small molecule lysosome-targeting chimeric activity based PDE-delta degradation in human MIA PaCa-2 cells at 5 uM incubated for 48 hrs by Western blot analysis relative to control; type: cell-based
[12] = target: T3, Retinal rod rhodopsin-sensitive cGMP 3',5'-cyclic phosphodiesterase subunit delta; assay: Peptide-mediated small molecule lysosome-targeting chimeric activity based PDE-delta degradation in human MIA PaCa-2 cells incubated for 48 hrs by Western blot analysis; type: cell-based
MIA PaCa-2 [13] = assay: Induction of apoptosis in human MIA PaCa-2 cells assessed as viable cells at 5 uM incubated for 48 hrs by Annexin V-FITC/PI staining based flow cytometry (reference value: 92.1 %); type: functional; settings: read-out: Activity
MIA PaCa-2 [14] = assay: Induction of apoptosis in human MIA PaCa-2 cells assessed as early apoptotic cells at 5 uM incubated for 48 hrs by Annexin V-FITC/PI staining based flow cytometry (reference value: 4.45 %); type: functional
MIA PaCa-2 [15] = assay: Induction of apoptosis in human MIA PaCa-2 cells assessed as late apoptotic cells at 5 uM incubated for 48 hrs by Annexin V-FITC/PI staining based flow cytometry (reference value: 2.90 %); type: functional
MIA PaCa-2 [16] = assay: Induction of apoptosis in human MIA PaCa-2 cells assessed as necrotic cells at 5 uM incubated for 48 hrs by Annexin V-FITC/PI staining based flow cytometry (reference value: 0.55 %); type: functional
MIA PaCa-2 [17] = assay: Induction of apoptosis in human MIA PaCa-2 cells assessed as viable cells at 10 uM incubated for 48 hrs by Annexin V-FITC/PI staining based flow cytometry (reference value: 92.1 %); type: functional; settings: read-out: Activity
MIA PaCa-2 [18] = assay: Induction of apoptosis in human MIA PaCa-2 cells assessed as early apoptotic cells at 10 uM incubated for 48 hrs by Annexin V-FITC/PI staining based flow cytometry (reference value: 4.45 %); type: functional
MIA PaCa-2 [19] = assay: Induction of apoptosis in human MIA PaCa-2 cells assessed as late apoptotic cells at 10 uM incubated for 48 hrs by Annexin V-FITC/PI staining based flow cytometry (reference value: 2.90 %); type: functional
MIA PaCa-2 [20] = assay: Induction of apoptosis in human MIA PaCa-2 cells assessed as necrotic cells at 10 uM incubated for 48 hrs by Annexin V-FITC/PI staining based flow cytometry (reference value: 0.55 %); type: functional
MIA PaCa-2 [21] = assay: Induction of apoptosis in human MIA PaCa-2 cells assessed as viable cells at 20 uM incubated for 48 hrs by Annexin V-FITC/PI staining based flow cytometry (reference value: 92.1 %); type: functional; settings: read-out: Activity
MIA PaCa-2 [22] = assay: Induction of apoptosis in human MIA PaCa-2 cells assessed as early apoptotic cells at 20 uM incubated for 48 hrs by Annexin V-FITC/PI staining based flow cytometry (reference value: 4.45 %); type: functional
MIA PaCa-2 [23] = assay: Induction of apoptosis in human MIA PaCa-2 cells assessed as late apoptotic cells at 20 uM incubated for 48 hrs by Annexin V-FITC/PI staining based flow cytometry (reference value: 2.90 %); type: functional
MIA PaCa-2 [24] = assay: Induction of apoptosis in human MIA PaCa-2 cells assessed as necrotic cells at 20 uM incubated for 48 hrs by Annexin V-FITC/PI staining based flow cytometry (reference value: 0.55 %); type: functional
[25] = Stability of compound in PBS buffer incubated for 48 hrs by HPLC analysis; type: physicochemical
[26] = Metabolic stability in rat liver microsomes assessed as half life; type: ADME, Microsome
[27] = target: T3, Retinal rod rhodopsin-sensitive cGMP 3',5'-cyclic phosphodiesterase subunit delta; assay: Peptide-mediated small molecule lysosome-targeting chimeric activity based PDE-delta degradation in Baf-A1-treated human MIA PaCa-2 cells at 0.5 to 1 uM incubated for 48 hrs by Western blot analysis; type: cell-based; settings: dose 0.5-1 µM
[28] = target: T3, Retinal rod rhodopsin-sensitive cGMP 3',5'-cyclic phosphodiesterase subunit delta; assay: Peptide-mediated small molecule lysosome-targeting chimeric activity based PDE-delta degradation in human MIA PaCa-2 cells assessed as increase in lysosome-related organelles at 1 uM incubated for 48 hrs by TEM analysis; type: cell-based
[29] = target: T3, Retinal rod rhodopsin-sensitive cGMP 3',5'-cyclic phosphodiesterase subunit delta; assay: Peptide-mediated small molecule lysosome-targeting chimeric activity based PDE-delta degradation in human MIA PaCa-2 cells assessed as reduction in Erk phosphorylation at Thr202/Tyr204 at 0.1 to 5 uM incubated for 48 hrs by Western blot analysis; type: cell-based; settings: dose 0.1-5 µM
MIA PaCa-2 [30] = assay: Effect on total Erk in human MIA PaCa-2 cells at 0.1 to 5 uM incubated for 48 hrs by Western blot analysis; type: functional, cell-based; settings: dose 0.1-5 µM
[31] = target: T3, Retinal rod rhodopsin-sensitive cGMP 3',5'-cyclic phosphodiesterase subunit delta; assay: Peptide-mediated small molecule lysosome-targeting chimeric activity based PDE-delta degradation in human MIA PaCa-2 cells assessed as reduction in Akt phosphorylation at S473 at 2 uM incubated for 48 hrs by Western blot analysis; type: cell-based
MIA PaCa-2 [32] = assay: Effect on total Akt in human MIA PaCa-2 cells at 0.1 to 5 uM incubated for 48 hrs by Western blot analysis; type: functional, cell-based; settings: dose 0.1-5 µM

## Cc1ccc(-n2nc3c(=O)n(CCCC(=O)NCCCCCNc4cccc5c4C(=O)N(C4CCC(=O)NC4=O)C5=O)nc(C)c3c2C)cc1 (stereo unspecified)
MIA PaCa-2 [1]
  IC50: 9.3 µM

## N=C(N)NCCC[C@H](NC(=O)CNC(=O)CNC(=O)CNC(=O)CCCCCCCN1CCN(S(=O)(=O)c2ccc(NC(=S)NCc3cccnc3)cc2)CC1)C(=O)N[C@@H](CCCNC(=N)N)C(=O)N[C@@H](CCCNC(=N)N)C(=O)N[C@@H](CCCNC(=N)N)C(=O)N[C@@H](CCCNC(=N)N)C(=O)N[C@@H](CCCNC(=N)N)C(=O)N[C@@H](CCCNC(=N)N)C(=O)N[C@@H](CCCNC(=N)N)C(=O)N[C@@H](CCCNC(=N)N)C(=O)N[C@@H](CC(N)=O)C(=O)N1CCC[C@H]1C(=O)NCC(=O)N[C@@H](Cc1ccc(O)cc1)C(N)=O (X2-[X3]GGGRRRRRRRRRNPGY-NH2)
[2]
  DC50: 0.89 µM
[2]; dose 1-40 µM
  Activity: Dose-Dependent Effect
[3]
  Emax: 93%
[4]
  DC50: 7 µM
[4]; dose 1-40 µM
  Activity: Dose-Dependent Effect
[5]
  Emax: 90%

## COc1nc(OCc2cccc(-c3ccccc3)c2C)ccc1CNCCNC(=O)CCCc1cn(CC(=O)NCC(=O)NCC(=O)N[C@@H](CCCNC(=N)N)C(=O)N[C@@H](CCCNC(=N)N)C(=O)N[C@@H](CCCNC(=N)N)C(=O)N[C@@H](CCCNC(=N)N)C(=O)N[C@@H](CCCNC(=N)N)C(=O)N[C@@H](CCCNC(=N)N)C(=O)N[C@@H](CCCNC(=N)N)C(=O)N[C@@H](CCCNC(=N)N)C(=O)N[C@@H](CCCNC(=N)N)C(=O)N[C@@H](CC(N)=O)C(=O)N2CCC[C@H]2C(=O)NCC(=O)N[C@@H](Cc2ccc(O)cc2)C(N)=O)nn1 (X4-GGRRRRRRRRRNPGY-NH2)
[6]
  Emax: 92%
[7]
  DC50: 0.2 µM
[8]
  Activity: inactive

## N=C(N)NCCC[C@H](NC(=O)CNC(=O)CNC(=O)CNC(=O)CCOCCOCCN1CCN(C/C=C/C(=O)N2CCC[C@@H](n3nc(-c4ccc(Oc5ccccc5)cc4)c4c(N)ncnc43)C2)CC1)C(=O)N[C@@H](CCCNC(=N)N)C(=O)N[C@@H](CCCNC(=N)N)C(=O)N[C@@H](CCCNC(=N)N)C(=O)N[C@@H](CCCNC(=N)N)C(=O)N[C@@H](CCCNC(=N)N)C(=O)N[C@@H](CCCNC(=N)N)C(=O)N[C@@H](CCCNC(=N)N)C(=O)N[C@@H](CCCNC(=N)N)C(=O)N[C@@H](CC(N)=O)C(=O)N1CCC[C@H]1C(=O)NCC(=O)N[C@@H](Cc1ccc(O)cc1)C(N)=O (X5-GGGRRRRRRRRRNPGY-NH2)
[9]
  Emax: 63%

## Cc1ccc(-n2nc3c(=O)n(CCCC(=O)NCCCCCCCC(=O)NCC(=O)NCC(=O)NCC(=O)N[C@@H](CCCNC(=N)N)C(=O)N[C@@H](CCCNC(=N)N)C(=O)N[C@@H](CCCNC(=N)N)C(=O)N[C@@H](CCCNC(=N)N)C(=O)N[C@@H](CCCNC(=N)N)C(=O)N[C@@H](CCCNC(=N)N)C(=O)N[C@@H](CCCNC(=N)N)C(=O)N[C@@H](CCCNC(=N)N)C(=O)N[C@@H](CCCNC(=N)N)C(=O)N[C@@H](CC(N)=O)C(=O)N4CCC[C@H]4C(=O)NCC(=O)N[C@@H](Cc4ccc(O)cc4)C(N)=O)nc(C)c3c2C)cc1 ({X1-Aoc}-GGGRRRRRRRRRNPGY-NH2)
[10]
  Activity: Active
[11]
  Emax: 89%
[12]
  DC50: 0.23 µM
[12]; dose 0.1-5 µM
  Activity: Dose-Dependent Effect
MIA PaCa-2 [1]
  IC50: 3.6 µM
MIA PaCa-2 [13]
  viability at 5 µM: 88.7%
MIA PaCa-2 [14]
  Activity: 6.85%
MIA PaCa-2 [15]
  Activity: 3.48%
MIA PaCa-2 [16]
  Activity: 0.95%
MIA PaCa-2 [17]
  viability at 10 µM: 73.3%
MIA PaCa-2 [18]
  Activity: 10.7%
MIA PaCa-2 [19]
  Activity: 13.3%
MIA PaCa-2 [20]
  Activity: 2.05%
MIA PaCa-2 [21]
  viability at 20 µM: 59.7%
MIA PaCa-2 [22]
  Activity: 16.8%
MIA PaCa-2 [23]
  Activity: 19.7%
MIA PaCa-2 [24]
  Activity: 3.9%
[25]
  Stability: Stable
[26]
  half-life: 33.5 min
[27]
  Activity: inactive
[28]
  Activity: Active
[29]
  Activity: Active
MIA PaCa-2 [30]
  Activity: inactive
[31]
  Activity: Active
MIA PaCa-2 [32]
  Activity: inactive
